Test [1] relates to VCaP tumor xenograft. The settings on record: cited from earlier work.
Another test concerns prostate. Kind of test: 10-day prostate involution study in rats. It counts as in vivo, rat. The conditions noted are these: enzalutamide 100 mg/kg/day orally, 10 days, intact rats. The procedure: Enzalutamide and Compound A were orally administered once daily at the indicated doses. After 10 days of treatment, the prostate tissue from each rat was isolated and weighed. Treatment groups (n=5 per group) were compared by one way ANOVA. Note: ns: not significant, *: p<0.05, **: p≤0.01.
To substantiate the on-target mechanism of Compound A, a prostate involution study was conducted in rats. […] Twenty-four hours after the last dose, the rats were euthanized, and the prostate organs were isolated and weighed.

In test [2] the test system is VCaP tumor xenograft. The experiment in a line: VCaP tumor xenograft study in intact (non-castrated) mice. It counts as in vivo, mouse. The conditions noted are these: enzalutamide 20 mg/kg orally QD for 21 days. The text has this: To mimic higher androgen levels found in an incomplete testosterone suppression environment, intact (non-castrated) mice were employed for a VCaP tumor xenograft study.

Another test has as its system PSA. Kind of test: intracellular PSA ELISA in VCaP cells. It counts as cell-based. The settings on record: Homo sapiens, CSS + 0.1 nM R1881, 48 hours, read-out: IC50, inhibiting PSA expression. Here is the method: Intracellular prostate specific antigen (PSA) levels were determined using a PSA enzyme-linked immunosorbent assay (ELISA). […] The cell proliferation was determined using the CellTiter-Glo® assay. […] The CaspaseGlo® assay was carried out to measure the level of apoptosis in cells.
To evaluate the pharmacological effect of Compound A in vitro, PSA, cell proliferation, and apoptosis assays were carried out in VCaP cells.

A further test concerns the target cereblon (Homo sapiens, UniProt Q96SW2). The conditions noted are these: pomalidomide 10 μM.

Broadly, the IC50 is the point on the concentration scale where inhibition reaches its midpoint.

Chain of cereblon (Q96SW2 whole entry): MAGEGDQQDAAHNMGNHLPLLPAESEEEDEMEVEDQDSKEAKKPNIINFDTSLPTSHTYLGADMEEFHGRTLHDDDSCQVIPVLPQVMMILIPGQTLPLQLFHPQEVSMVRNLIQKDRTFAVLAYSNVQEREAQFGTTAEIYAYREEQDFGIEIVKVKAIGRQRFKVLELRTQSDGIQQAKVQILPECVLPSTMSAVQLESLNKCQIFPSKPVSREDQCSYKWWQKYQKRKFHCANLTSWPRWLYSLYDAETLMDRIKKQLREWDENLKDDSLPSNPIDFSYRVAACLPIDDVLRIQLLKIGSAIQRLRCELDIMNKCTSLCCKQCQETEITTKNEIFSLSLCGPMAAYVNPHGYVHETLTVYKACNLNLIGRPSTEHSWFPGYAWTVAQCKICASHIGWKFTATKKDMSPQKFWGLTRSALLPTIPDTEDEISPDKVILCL

Regarding `CNC(=O)c1ccc(N2C(=S)N(c3ccc(C#N)c(C(F)(F)F)c3)C(=O)C2(C)C)cc1F` [enzalutamide, reference compound], the “activity in the intact VCaP setting (published data)” value in the test on VCaP tumor xenograft [1] is “very modest activity, or no activity at all”. Moreover, the “Mean (±SEM) prostate weights” value with prostate was 818 ± 170 mg. Further, the “tumor growth inhibition (TGI)” value in the test on VCaP tumor xenograft [2] is given as 27%. Besides, the IC50 with PSA came out at 175 nM.

Turning to `Nc1cccc2c1C(=O)N(C1CCC(=O)NC1=O)C2=O` (centres unmarked) [pomalidomide], the “effect on Compound A mediated AR degradation” value on cereblon is recorded as “blocked Compound A mediated degradation”.

The values are drawn from patent publication US20240180900A1, “COMPOUNDS AND METHODS FOR THE TARGETED DEGRADATION OF ANDROGEN RECEPTOR” (Arvinas Operations, Inc., priority 2022, published 2024).
